For series [1], the system named is SD rats (type 2 diabetes model). Kind of series: model for rat urine glucose excretion (glucose-oxidase method). The format is in vivo. As for the experimental part:
The health SD rats are injected intraperitoneally with multiple low doses of streptozotocin for modeling (type 2 diabetes model) after feeding with high-fat and high-sucrose diet, and the content of blood glucose is measured before and after modeling. After the modeling successful, the rats for modeling are randomly divided (8 rats/group) into one blank group (administering the same volume of 0.5% CMC sodium solution) and several groups for compounds to be tested (6 mg/kg) according to the content of 24-hour urine glucose and the body weight. Rats in each group are fasted for 16 hours before experiment. The experimental rats are administered intragastrically with glucose (2 g/kg) at 0.5 h after intragastrical administration with compounds to be tested. The urine is collected at the time-period of 0-12 h after administration, and the urine glucose values are measured at each time-period by glucose-oxidase method.
The inhibiting activity of the cocrystal of I-D1-6 and L-proline on SGLT2 is measured by the model for rat urine glucose excretion.
The health SD rats are injected intraperitoneally with multiple low doses of streptozotocin for modeling (type 2 diabetes model) after feeding with high-fat and high-sucrose diet for one month, and the content of blood glucose is measured before and after modeling. After the modeling successful, the rats for modeling are randomly divided (8 rats/group) into one blank group (administering the same volume of 0.5% CMC sodium solution) and groups of tested compound (6 mg/kg) according to the content of 24-hour urine glucose and the body weight. Rats in each group are fasted for 16 hours before experiment. The experimental rats are administered intragastrically with the glucose (2 g/kg) at 0.5 h after intragastrical administration with the cocrystal of I-D1-6 and L-proline prepared in Example 138. The urine is collected at the time-period of 0-12 h after administration, and the urine glucose values are measured at each time-period by glucose-oxidase method.

In series [2] the target is hSGLT2 (Homo sapiens (Human), UniProt P31639). Kind of series: IC50 of inhibition on SGLT2. It is filed as cell-based. To be noted: for pIC50 / Seletivity IC50 (hSGLT1)/IC50 (hSGLT2): Table 3.
Chain of hSGLT2 (P31639 whole entry): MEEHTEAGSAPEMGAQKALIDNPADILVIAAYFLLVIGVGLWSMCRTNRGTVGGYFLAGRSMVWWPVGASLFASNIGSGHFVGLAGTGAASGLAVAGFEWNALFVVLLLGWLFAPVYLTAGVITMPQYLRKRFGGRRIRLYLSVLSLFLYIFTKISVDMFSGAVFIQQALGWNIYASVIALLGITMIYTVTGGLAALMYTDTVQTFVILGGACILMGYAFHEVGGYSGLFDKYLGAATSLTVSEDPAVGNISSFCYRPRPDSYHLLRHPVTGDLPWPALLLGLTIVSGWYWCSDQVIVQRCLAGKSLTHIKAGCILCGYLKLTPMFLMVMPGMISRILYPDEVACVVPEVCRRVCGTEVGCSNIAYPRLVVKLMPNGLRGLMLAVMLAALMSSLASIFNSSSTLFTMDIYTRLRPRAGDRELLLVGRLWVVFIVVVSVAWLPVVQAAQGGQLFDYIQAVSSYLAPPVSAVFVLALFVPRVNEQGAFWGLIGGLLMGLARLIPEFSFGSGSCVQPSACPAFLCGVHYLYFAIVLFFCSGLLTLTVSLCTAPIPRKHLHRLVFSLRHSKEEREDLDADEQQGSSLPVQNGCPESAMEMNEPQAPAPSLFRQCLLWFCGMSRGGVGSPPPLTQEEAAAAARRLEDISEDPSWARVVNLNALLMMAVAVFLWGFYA
Series [3] has as its target hSGLT1 (Homo sapiens (Human), UniProt P13866). The series is described as follows: IC50 of inhibition on SGLT1. It is filed as cell-based. To be noted: for pIC50: Table 3.
Series [4] can be described thus: influencing factors test: light stability. The format is physicochemical. To be noted: for Appearance / Number of impurity / Total amount of impurity (%): listed as I-D1-6 raw materials; for storage stability (in words): two-week stability test under light, higher temperature, higher humidity. The source says:
(§1) The appearance, number of impurity and the amount of impurity (measured by HPLC) are compared with that of day 0.

A short description of series [5]: influencing factors test: higher temperature stability. To be noted: higher temperature (45° C.), listed as I-D1-6 raw materials. The format is physicochemical.
Source text: as §1

The nature of series [6]: influencing factors test: higher humidity stability. It is filed as physicochemical.
Source text: as §1

Series [7] has as its system Mice. To be noted: mice, 10 mice/group, single intragastric dose 750 mg/kg, within one week.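 Note: mice weighing 18–20 g, both sexes in equal proportion within each group.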
Experimental: Mice (18-20 g) with equal numbers of male and female are divided into groups (10 mice/group), after normal feeding for 3 days, fasted for 12 hours, and then administered intragastrically with a single dose of 750 mg/kg compound respectively.
Setting [8] is: higher humidity, day 0, HPLC, listed as I-D1-6 raw materials.
[9] abbreviates: higher humidity, day 7, HPLC, listed as I-D1-6 raw materials.
Where [10] appears, read: higher humidity, day 14, HPLC, listed as I-D1-6 raw materials.

Each structure is given as a SMILES string. pIC50: −log10 of the molar value. Entries after “also recorded” stand apart in the source; their conditions may differ.

Experimental findings from patent US9505734B2, “Phenyl C-glucoside derivative containing deoxyglucose structure, preparation method and use thereof” (Tianjin Institute of Pharmaceutical Research, priority 2012, dated 2016) are described below.

What is called pIC50 is the IC50 on a negative log10 scale, so that one unit is a factor of ten.

Chain of hSGLT1 (P13866 whole entry): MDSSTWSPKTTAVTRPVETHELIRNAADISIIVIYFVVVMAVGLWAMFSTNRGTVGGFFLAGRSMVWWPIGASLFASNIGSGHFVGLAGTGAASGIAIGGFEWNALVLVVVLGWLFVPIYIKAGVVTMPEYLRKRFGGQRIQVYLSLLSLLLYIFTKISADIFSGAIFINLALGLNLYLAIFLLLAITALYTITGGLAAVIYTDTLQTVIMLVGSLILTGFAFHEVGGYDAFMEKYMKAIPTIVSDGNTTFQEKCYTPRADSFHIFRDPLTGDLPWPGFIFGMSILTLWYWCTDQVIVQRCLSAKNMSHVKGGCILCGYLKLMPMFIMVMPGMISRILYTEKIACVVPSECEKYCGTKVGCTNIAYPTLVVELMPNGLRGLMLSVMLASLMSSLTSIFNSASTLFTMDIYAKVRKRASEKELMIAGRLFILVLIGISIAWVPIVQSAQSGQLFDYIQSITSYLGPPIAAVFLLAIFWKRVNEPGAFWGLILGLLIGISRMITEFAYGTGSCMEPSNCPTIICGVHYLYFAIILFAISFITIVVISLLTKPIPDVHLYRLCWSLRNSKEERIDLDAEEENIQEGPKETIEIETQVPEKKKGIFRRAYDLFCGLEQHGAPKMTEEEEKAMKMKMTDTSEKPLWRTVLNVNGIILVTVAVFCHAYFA

`CCOc1ccc(Cc2cc(C3OC(C)C(O)C(O)C3O)ccc2Cl)cc1` [I-D1-6, (1S)-1-[4-chloro-3-(4-ethoxybenzyl)phenyl]-1,6-dideoxy-D-glucose]: the “urine glucose excretion effect (in words)” value in series [1] (comparison in words, rat urine glucose excretion model, 6 mg/kg) is given as “stronger urine glucose excretion effect”. Besides, the “inhibition to SGLT2 (in words)” value in series [2] (in words) is given as “inhibitory effect on SGLT2 enzyme; also recorded: much stronger inhibition to SGLT2”. Moreover, the “selectivity on SGLT1/SGLT2 (in words)” value in series [2] (in words) is reported as “much better selectivity on SGLT1/SGLT2”. The “inhibition to SGLT1 (in words)” value in series [3] (in words) is “much less inhibition to SGLT1”. The Appearance entry is “a white,” in series [4] (light (natural daylight, about 80000 Lx), day 0); “a white,” in series [4] (light, day 7); “a white,” in series [4] (light, day 14); “white,” in series [5] (day 0); “white,” in series [5] (day 7); “white,” in series [5] (day 14). Moreover, the Appearance result in series [6] (higher humidity (30% relative humidity at 30° C.), day 0, listed as I-D1-6 raw materials) is “white,”; in series [6] (higher humidity, day 7) it was “white”; in series [6] (higher humidity, day 14), “white”. Further, the Number of impurity in series [4] (light, day 0, HPLC) turned out to be 7; in series [4] (light, day 7, HPLC) it was 7; in series [4] (light, day 14, HPLC), 7; in series [5] (day 0, HPLC) it was 7; in series [5] (day 7, HPLC) it was 8; in series [5] (day 14, HPLC), 9. For the same molecule, the Number of impurity came to 7 in series [6] (setting [8]), 7 in series [6] (setting [9]) and 8 in series [6] (setting [10]). Further, the “Total amount of impurity (%)” value in series [4] (light, day 0, HPLC) is recorded as 0.89%; in series [4] (light, day 7, HPLC), 0.93%; in series [4] (light, day 14, HPLC), 0.96%; in series [5] (day 0, HPLC), 0.89%; in series [5] (day 7, HPLC) it was 0.97%; in series [5] (day 14, HPLC) it was 1.13%. Moreover, the “Total amount of impurity (%)” value in series [6] (setting [8]) amounted to 0.89%; in series [6] (setting [9]), 0.93%; in series [6] (setting [10]), 1.08%.
Turning to `CCOc1ccc(Cc2cc(C3OC(C)C(O)C(O)C3O)ccc2Cl)cc1` [cocrystal of I-D1-6 and L-proline, cocrystal of (1S)-1-[4-chloro-3-(4-ethoxybenzyl)phenyl]-1,6-dideoxy-D-glucose (I-D1-6) and L-proline], in series [1] (type 2 diabetes model SD rats, 6 mg/kg intragastrically, glucose 2 g/kg at 0.5 h, urine 0-12 h), the urine glucose production was 912 mg urine glucose/200 g body weight. The “Selectivity IC50 (hSGLT1)/IC50 (hSGLT2)” value in series [2] (Table 4, cocrystal prepared in Example 138) stood at 375. Also, the “storage stability (in words)” value in series [4] is recorded as “good storage stability”; in series [4] (listed as cocrystal), “better storage stability”.
Take `CCOc1ccc(Cc2cc([C@@]34OC[C@@](CO)(C[C@H](O)[C@H]3O)O4)ccc2Cl)cc1` [drawing 293]: the “Behaviors after administration with the compound to be tested (deaths)” value (shortened to “Behaviors after administration”) in series [7] was determined as 4 dead.
On the same count and under the same terms, with `CCOc1ccc(Cc2cc(C3OC(C)CC(O)C3O)ccc2Cl)cc1` (centres unmarked) [drawing 294] the figure was 1 dead; with `CC1OC(c2ccc(F)c(Cc3cc4ccccc4s3)c2)CC(O)C1O` (centres unmarked) [drawing 295], 1 dead.
For the molecule `CCc1ccc(Cc2c(Cl)ccc3c2COC32CC(O)CC(CO)O2)cc1` (centres unmarked) [drawing 296], in series [7], the “Behaviors after administration” value is 1 dead.
On the same count and under the same terms, with `OCC1CC(O)C(O)C(c2ccc(Cl)c(Cc3ccc(O[C@H]4CCOC4)cc3)c2)O1` (some centres unmarked) [drawing 297] the figure was 2 dead; with `CCc1ccc(Cc2c(Cl)ccc3c2COC32OC(CO)CC(O)C2O)cc1` (centres unmarked) [drawing 298], 5 dead; with `CCc1ccc(Cc2c(Cl)ccc3c2COC32OC(C)C(O)C(O)C2O)cc1` (centres unmarked) [drawing 299], 3 dead.
As to `CCOc1ccc(Cc2cc(C3SC(CO)C(O)CC3O)c(OC)cc2C)cc1` (centres unmarked) [drawing 300], the “Behaviors after administration” value in series [7] is 0 dead.
Same read-out and setting: with `CCOc1ccc(Cc2cc(C3SC(CO)C(O)CC3O)c(OC)cc2C)cc1` (centres unmarked) [drawing 301] the figure was 3 dead; with `CCOc1ccc(Cc2cc(C3SC(C)C(O)C(O)C3O)c(OC)cc2C)cc1` (centres unmarked) [drawing 302], 4 dead.
The same measure, in the same setting: with `CCOc1ccc(Cc2cc([C@]34C[C@@H](O)[C@H](O)[C@](CO)(CO3)O4)ccc2Cl)cc1` [drawing 303] the figure was 2 dead.
Same read-out and setting: with `CCOc1ccc(Cc2cc([C@]34OC[C@](CO)(O3)[C@@H](O)C[C@H]4O)ccc2Cl)cc1` [drawing 304] the figure was 3 dead; with `Cc1ccc(C2OC(C)C(O)CC2O)cc1Cc1ccc(-c2ccc(F)cc2)s1` (centres unmarked) [drawing 305], 0 dead.
`OCC1CCC(O)C(c2ccc(Cl)c(Cc3ccc(O[C@H]4CCOC4)cc3)c2)O1` (some centres unmarked) [drawing 306]: the “Behaviors after administration” value in series [7] amounted to 2 dead.
Turning to `CCOc1ccc(Cc2cc(C3CCC(O)C(CO)S3)c(OC)cc2C)cc1` (centres unmarked) [drawing 307], the “Behaviors after administration” value in series [7] was 0 dead.
`COc1ccc(Cc2cc(C3OC(C)C(O)C(O)C3O)ccc2Cl)cc1` (centres unmarked) [drawing 308]: the pIC50 is 8.48 in series [2] and 7.07 in series [3]. Moreover, in series [2], the “Seletivity IC50 (hSGLT1)/IC50 (hSGLT2)” value came out at 26.
With `CCOc1ccc(Cc2cc(C3OC(C)C(O)C(O)C3O)ccc2Cl)cc1` (centres unmarked) [drawing 309], in series [2], the pIC50 is 9.17 and the “Seletivity IC50 (hSGLT1)/IC50 (hSGLT2)” value is 374. In series [3], this molecule had a pIC50 of 6.60.
The like results for `CCOc1ccc(Cc2cc(C3OC(C)C(O)C(O)C3O)ccc2C)cc1` (centres unmarked) [drawing 310] were, in that order, 8.11, 24 and 6.73.
